One data set deals with human fecal microflora. The data set can be described thus: In vitro fermentation of fagopyritol-enriched buckwheat extract by human fecal microflora. It is filed as in vitro ADME. The following applies: 40° C.; for concentration of inositols and fagopyritols: anaerobic. The method, then:
Fermentation tests were done with fagopyritol-enriched Birkett Mills buckwheat extract that had previously been treated with dry granular baking yeast. Yeast cells were removed by centrifugation (10 minutes at 19K rpm using a Sorvall refrigerated centrifuge) and ultrafiltration (Amicon filtration device, 10, 000 MW cut-off). The fagopyritol water extract was boiled under carbon dioxide to sterilize and remove all other gases.
Anaerobic conditions were maintained during the preparation of fecal inoculum and of all samples by working under streams of carbon dioxide gas. Fermentation bottles were sealed with rubber stoppers and metal caps.
Fagopyritol substrate was prepared first. Then, 1 ml was placed in all bottles except blanks (duplicate samples plus one control and one blank done for 0, 6, 12, and 24 hours). Next, the nutritive medium was prepared. Control bottles received 1 ml of the medium in place of inoculum. The remaining medium was used to dilute fresh feces 1:12, w/v, prepared as described in Barry et al., “In Vitro Fermentation of Neutral Monosaccharides by Ruminal and Human Fecal Microflora,” Acta Vet Scand, 86 (supplement): 93-95 (1989) and Guillon et al., “Characterization of Residual Fibers from Fermentation of Pea and Apple Fibres by Human Fecal Bacteria,” J. Sci. Food Agric., 68:521-529 (1995), which are hereby incorporated by reference. All samples and blanks were inoculated with 1 ml of fecal inoculum by syringe through the rubber stoppers.
A 40° C. water bath was used for the fermentation which was stopped at the specified times by opening bottles to air and immediately freezing.
The samples were prepared for GC analysis after thawing by centrifuging (microfuge, 8000 rpm) once and then again in 10,000 MW cut-off microfuge tubes. The salts present in those samples containing nutritive medium were removed by passing each sample through Amberlite mixed-bed resin, because salts interfere with TMS-derivitization. Two control samples of the original extract were also passed through the resin to insure that fagopyritols were not removed by the treatment.
A small volume of each (750 μL) was dried with 100 μg of internal standard (phenyl α-D-glucopyranoside) in silyation vials under a stream of nitrogen gas; vials were then placed in a desiccator over P205 overnight.
Trimethylsilyl derivitives were prepared by adding 100 μL of 1:1 pyridine:TMS solution and heating at 70° C. for 30 minutes.
Finally, derivitized samples were analyzed on the GC (HP 5890 Series II; DB-1 column; 0.25 mm i.d., 15 m length, 0.25 μm film thickness).

For data set [1], the target named is T1, green coffee bean α-D-galactosidase (EC 3.2.1.22) (Coffea arabica, UniProt Q42656).
T1 construct: desalted green coffee bean α-D-galactosidase (EC 3.2.1.22); purchased Boehringer Mannheim Corporation, Indianapolis, Ind; host or cells: green coffee bean
T1 sequence (Q42656 16-378): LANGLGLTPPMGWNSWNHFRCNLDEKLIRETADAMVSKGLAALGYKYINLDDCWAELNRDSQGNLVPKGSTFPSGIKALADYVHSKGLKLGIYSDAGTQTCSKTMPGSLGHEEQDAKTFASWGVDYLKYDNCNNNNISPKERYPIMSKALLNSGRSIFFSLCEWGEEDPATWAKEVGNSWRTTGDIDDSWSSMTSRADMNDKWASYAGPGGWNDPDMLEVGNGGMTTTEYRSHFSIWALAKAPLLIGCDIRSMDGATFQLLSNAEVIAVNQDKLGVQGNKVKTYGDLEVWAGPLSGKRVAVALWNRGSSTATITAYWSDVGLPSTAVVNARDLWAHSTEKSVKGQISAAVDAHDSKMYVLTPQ
As to the kind of experiment: Enzymatic hydrolysis with α-galactosidase. It is filed as biochemical. The following applies: for hydrolysis by α-galactosidase (in words): 1.25 units desalted enzyme in 200 μL water at 22° C. (Examples 22, 23), products by GC. The method, then:
Enzymatic Digestion. One ml of green coffee bean α-galactosidase (EC 3.2.1.22) (Boehringer Mannheim Corporation, Indianapolis, Ind.) in 3.2 M ammonium sulfate was dialyzed overnight against 1000 ml of distilled water to remove the ammonium sulfate that interferes with the silylation reaction and causes variable results. […] After 24 h, 0.2 ml of absolute ethanol and 100 μg of internal standard were added. The mixture was heated to 90° C. for 5 min to inactivate the enzyme and centrifuged through a 10,000 Mr cutoff filter. The filtrate was evaporated to dryness in a stream of nitrogen gas, silylated, and analyzed by gas chromatography as above.
(§1) Acid and Enzymic Hydrolysis. […] Enzyme protein was removed by filtration (10,000 MW cut-off filter), samples were dried, and products assayed by GC analysis of trimethylsilyl derivatives. Raffinose and lactose (100 μg) were hydrolyzed only by α- or β-D-galactosidase respectively, confirming that both enzymes were active.
(§2) Acid and Enzymic Hydrolysis. […] Enzyme protein was removed by filtration (10,000 MW cut-off filter), samples were dried, and products assayed by GC analysis of trimethylsilyl derivatives. Raffinose and lactose (100 μg) were hydrolyzed by α- or β-D-galactosidase respectively, confirming that both enzymes were active.

Data set [2] deals with bovine liver β-D-galactosidase (EC 3.2.1.23). The data set can be described thus: Enzymatic hydrolysis with β-galactosidase. It is filed as biochemical. The following applies: for hydrolysis by β-galactosidase (in words): 0.5 units in 200 μL water at 37° C. for 24 h, products by GC. On the procedure:
as §1, §2

[3] abbreviates: Controls (nutritive medium in place of fecal inoculum), 0 hrs.
The mark [4] stands for this setting: Controls (nutritive medium in place of fecal inoculum), 6 hrs.
[5] abbreviates: Controls (nutritive medium in place of fecal inoculum), 12 hrs.
[6] abbreviates: Samples with human fecal inoculum, 0 hrs.
Where [7] appears, read: Samples with human fecal inoculum, 6 hrs.
Where [8] appears, read: Samples with human fecal inoculum, 12 hrs.

With `OC1C(O)C(O)C(O)C(O)C1O` [D-chiro-inositol], the concentration of inositols and fagopyritols came to 99 µg/750 µL with human fecal microflora (setting [3]); 102 µg/750 µL with human fecal microflora (setting [4]); 58 µg/750 µL in the data set with human fecal microflora (setting [5]); 47 µg/750 µL in the data set on human fecal microflora (setting [6]); 0 µg/750 µL with human fecal microflora (setting [7]); 0 µg/750 µL in the data set on human fecal microflora (setting [8]).
Take `OCC1O[C@@H](O[C@H]2C(O)C(O)[C@H](O)C(O)C2O)C(O)C(O)[C@H]1O` (stereo partly drawn) [Fagopyritol A1, O-α-D-galactopyranosyl-(1→3)-D-chiro-inositol]: the “hydrolysis by α-galactosidase (in words)” value in data set [1] was “hydrolyzed”. The “Enzymic hydrolysis by α-D-galactosidase” value in data set [1] (Fagopyritol A and B Series) was “yes”. Moreover, the concentration of inositols and fagopyritols in the data set with human fecal microflora (setting [3]) was determined as 88 µg/750 µL; in the data set on human fecal microflora (setting [4]) it was 87 µg/750 µL; with human fecal microflora (setting [5]) it was 94 µg/750 µL; in the data set on human fecal microflora (setting [6]) it was 106 µg/750 µL; in the data set with human fecal microflora (setting [7]), 0 µg/750 µL; in the data set on human fecal microflora (setting [8]) it was 0 µg/750 µL. Moreover, the “hydrolysis by β-galactosidase (in words)” value in data set [2] was “not by β-D-galactosidase”. In data set [2] (Fagopyritol A and B Series), the “Enzymic hydrolysis by β-D-galactosidase” value is “no”.
Turning to `OCC1O[C@H](OCC2O[C@@H](O[C@H]3C(O)C(O)[C@H](O)C(O)C3O)C(O)C(O)[C@H]2O)C(O)C(O)[C@H]1O` (stereo partly drawn) [Fagopyritol A2, O-α-D-galactopyranosyl-(1→6)-O-α-D-galactopyranosyl-(1→3)-D-chiro-inositol], in data set [1], the “hydrolysis by α-galactosidase (in words)” value was “hydrolyzed”. Besides, in data set [1] (Fagopyritol A and B Series), the “Enzymic hydrolysis by α-D-galactosidase” value is “yes”. In addition, the concentration of inositols and fagopyritols came out at 56 µg/750 µL in the data set with human fecal microflora (setting [3]); 54 µg/750 µL with human fecal microflora (setting [4]); 59 µg/750 µL in the data set on human fecal microflora (setting [5]); 54 µg/750 µL with human fecal microflora (setting [6]); 0 µg/750 µL in the data set with human fecal microflora (setting [7]); 0 µg/750 µL in the data set on human fecal microflora (setting [8]). Moreover, the “hydrolysis by β-galactosidase (in words)” value in data set [2] was “not by P-D-galactosidase”. For the same molecule, the “Enzymic hydrolysis by β-D-galactosidase” value in data set [2] (Fagopyritol A and B Series) is recorded as “no”.
Take `OCC1O[C@H](OC2C(O)[C@H](O)C(O)C(O)[C@@H]2O)C(O)C(O)[C@H]1O` (stereo partly drawn) [Fagopyritol B1, O-α-D-galactopyranosyl-(1→2)-D-chiro-inositol]: the “hydrolysis by α-galactosidase (in words)” value in data set [1] is given as “hydrolyzed”. In data set [1] (Fagopyritol A and B Series), the “Enzymic hydrolysis by α-D-galactosidase” value was “yes”. Moreover, the concentration of inositols and fagopyritols in the data set on human fecal microflora (setting [3]) came to 667 µg/750 µL; in the data set on human fecal microflora (setting [4]), 636 µg/750 µL; in the data set with human fecal microflora (setting [5]), 605 µg/750 µL; in the data set with human fecal microflora (setting [6]) it was 591 µg/750 µL; in the data set on human fecal microflora (setting [7]) it was 0 µg/750 µL; in the data set with human fecal microflora (setting [8]) it was 0 µg/750 µL. In addition, in data set [2], the “hydrolysis by β-galactosidase (in words)” value is recorded as “not by β-D-galactosidase”. The “Enzymic hydrolysis by β-D-galactosidase” value in data set [2] (Fagopyritol A and B Series) is reported as “no”.
`OCC1O[C@H](OCC2O[C@H](OC3C(O)[C@H](O)C(O)C(O)[C@@H]3O)C(O)C(O)[C@H]2O)C(O)C(O)[C@H]1O` (stereo partly drawn) [Fagopyritol B2, O-α-D-galactopyranosyl-(1→6)-O-α-D-galactopyranosyl-(1→2)-D-chiro-inositol]: in data set [1], the “hydrolysis by α-galactosidase (in words)” value was “hydrolyzed”. For the same molecule, the “Enzymic hydrolysis by α-D-galactosidase” value in data set [1] (Fagopyritol A and B Series) was “yes”. Further, the concentration of inositols and fagopyritols in the data set with human fecal microflora (setting [3]) is 83 µg/750 µL; in the data set with human fecal microflora (setting [4]), 72 µg/750 µL; in the data set on human fecal microflora (setting [5]) it was 66 µg/750 µL; in the data set on human fecal microflora (setting [6]) it was 65 µg/750 µL; in the data set on human fecal microflora (setting [7]), 0 µg/750 µL; in the data set with human fecal microflora (setting [8]) it was 0 µg/750 µL. In addition, the “hydrolysis by β-galactosidase (in words)” value in data set [2] is recorded as “not by P-D-galactosidase”. The “Enzymic hydrolysis by β-D-galactosidase” value in data set [2] (Fagopyritol A and B Series) is reported as “no”.
For the molecule `OC[C@H]1O[C@H](OC2[C@@H](O)[C@H](O)C(O)[C@H](O)[C@@H]2O)[C@H](O)[C@@H](O)[C@H]1O` (stereo partly drawn) [Galactinol (gt1)], the “Enzymic hydrolysis by α-D-galactosidase” value in data set [1] (Galactinol Series) was “yes”. In addition, the “Enzymic hydrolysis by β-D-galactosidase” value in data set [2] (Galactinol Series) is given as “no”.
Turning to `OC[C@H]1O[C@H](OC[C@H]2O[C@H](O[C@]3(CO)O[C@H](CO)[C@@H](O)[C@@H]3O)[C@H](O)[C@@H](O)[C@@H]2O)[C@H](O)[C@@H](O)[C@H]1O` [Raffinose, O-α-D-galactopyranosyl-(1→6)-α-D-glucopyranosyl-(1→2)-β-D-fructofuranoside, reference compound], the “hydrolysis by α-galactosidase (in words)” value in data set [1] was “hydrolyzed”.
Same read-out and setting: the result for `OCC1OC(OCC2OC(OCC3OC(OC4C(O)C(O)C(O)C(O)C4O)C(O)C(O)C3O)C(O)C(O)C2O)C(O)C(O)C1O` [TGMI, O-α-D-galactopyranosyl-(1→6)-O-α-D-galactopyranosyl-(1→6)-O-α-D-galactopyranosyl-(1→3)-D-myo-inositol] reads “completely hydrolyzed”.
With `OC[C@H]1O[C@H](OC[C@H]2O[C@H](O[C@@H]3[C@@H](O)[C@H](O)[C@@H](O)[C@H](O)[C@@H]3O)[C@H](O)[C@@H](O)[C@H]2O)[C@H](O)[C@@H](O)[C@H]1O` [digalactosyl myo-inositol, O-α-D-galactopyranosyl-(1→6)-O-α-D-galactopyranosyl-(1→3)-D-myo-inositol], in data set [1], the “hydrolysis by α-galactosidase (in words)” value was “completely hydrolyzed”. Moreover, in data set [2], the “hydrolysis by β-galactosidase (in words)” value was “not by β-galactosidase”.
As to `OC[C@H]1O[C@@H](O[C@H]2[C@H](O)[C@@H](O)C(O)O[C@@H]2CO)[C@H](O)[C@@H](O)[C@H]1O` (stereo partly drawn) [lactose, reference compound], the “hydrolysis by β-galactosidase (in words)” value in data set [2] is “hydrolyzed”.
As to `O[C@H]1[C@H](O)[C@@H](O)[C@H](O)[C@@H](O)[C@H]1O` [myo-inositol], the concentration of inositols and fagopyritols in the data set with human fecal microflora (setting [3]) was 45 µg/750 µL; in the data set on human fecal microflora (setting [4]), 48 µg/750 µL; in the data set on human fecal microflora (setting [5]), 26 µg/750 µL; in the data set on human fecal microflora (setting [6]), 20 µg/750 µL; in the data set on human fecal microflora (setting [7]), 0 µg/750 µL; in the data set with human fecal microflora (setting [8]) it was 0 µg/750 µL.
For the molecule `OC[C@H]1O[C@H](O[C@H]2O[C@H](CO)[C@@H](O)[C@H](O)[C@H]2O)[C@H](O)[C@@H](O)[C@@H]1O` [trehalose, O-α-D-glucopyranosyl-(1-1′)-O-α-D-glucoside], the “metabolism by fecal bacteria (in words)” value in the data set with human fecal microflora (fermentation of fagopyritol-enriched extract) is “metabolized”.
Consider “O-α-D-galactopyranosyl-(1→6)-O-α-D-galactopyranosyl-(1→6)-O-α-D-galactopyranosyl-(1→2)-D-chiro-inositol [Fagopyritol B3]”, for which the “hydrolysis by α-galactosidase (in words)” value in data set [1] is listed as “completely hydrolyzed”. Further, in data set [1] (Fagopyritol A and B Series), the “Enzymic hydrolysis by α-D-galactosidase” value is listed as “yes”.
For the molecule “O-α-D-galactopyranosyl-(1→6)-O-α-D-galactopyranosyl-(1→6)-O-α-D-galactopyranosyl-(1→3)-D-chiro-inositol [Fagopyritol A3]”, the “hydrolysis by α-galactosidase (in words)” value in data set [1] is “hydrolyzed”. Also, the “Enzymic hydrolysis by α-D-galactosidase” value in data set [1] (Fagopyritol A and B Series) is on record as “yes”. Also, the concentration of inositols and fagopyritols with human fecal microflora (setting [3]) amounted to 21 µg/750 µL; with human fecal microflora (setting [4]) it was 20 µg/750 µL; in the data set on human fecal microflora (setting [5]), 26 µg/750 µL; with human fecal microflora (setting [6]), 48 µg/750 µL; in the data set on human fecal microflora (setting [7]) it was 0 µg/750 µL; in the data set with human fecal microflora (setting [8]), 0 µg/750 µL. In addition, in data set [2], the “hydrolysis by β-galactosidase (in words)” value is “not by P-D-galactosidase”. Moreover, in data set [2] (Fagopyritol A and B Series), the “Enzymic hydrolysis by β-D-galactosidase” value is “no”.

(Values after US6825173B2, “Preparation of fagopyritols and uses therefor” (Cornell Research Foundation, Inc., priority 1997, dated 2004).)
